Active and inactive are the calls of the source. The rule behind the calls is not given here.
Key:
[1] = Toxicity in mouse assessed as change in body weight at 5 to 15 mg/kg, po; type: organism-based; conditions: in vivo, dose 5-15 mg/kg
THP-1 [2] = experiment: Anti-atherosclerosis activity in human THP-1 cells transfected with PCSK9 siRNA assessed as reduction in NLRP3 level at 100 nM preincubated with compound for 24 hrs followed by ox-LDL induction and measured after 24 hrs by Western blot analysis; type: functional, cell-based; conditions: time 48.0 hrs
Mus musculus [3] = experiment: Anti-atherosclerosis activity in mouse assessed as reduction in plaque area in aorta at 15 mg/kg, po measured for 3 weeks; type: functional, organism-based
[4] = AUC (0 to t) in C57 mouse at 5 mg/kg, po; type: ADME, organism-based; conditions: in vivo
THP-1 [5] = experiment: Anti-atherosclerosis activity in human THP-1 cells transfected with PCSK9 siRNA assessed as reduction in CD36 level at 100 nM preincubated with compound for 24 hrs followed by ox-LDL induction and measured after 24 hrs by Western blot analysis; type: functional, cell-based; conditions: time 48.0 hrs
Mus musculus [6] = experiment: Anti-atherosclerosis activity in mouse assessed as reduction in PCSK9 level in liver at 15 mg/kg, po measured for 3 weeks by Western blot analysis; type: functional, organism-based
HepG2 = experiment: Antiproliferative activity human HepG2 cells assessed as inhibition of cell growth incubated for 24 hrs by MTT assay; type: functional, cell-based
Huh-7 [7] = experiment: Induction of autophagy in human Huh-7 cells assessed as colocalization of lysosome with LAMP1 protein at 100 nM incubated for 3 hrs by DAPI staining based fluorescence based analysis; type: functional, cell-based
[8] = Cmax in C57 mouse at 5 mg/kg, po; type: ADME, organism-based; conditions: in vivo
[9] = Toxicity in mouse assessed as kidney damage at 5 to 15 mg/kg, po; type: organism-based; conditions: in vivo, dose 5-15 mg/kg
Huh-7 [10] = experiment: Induction of autophagy in human Huh-7 cells assessed as colocalization of lysosome with LC3B protein at 100 nM incubated for 3 hrs by DAPI staining based fluorescence based analysis; type: functional, cell-based
Huh-7 [11] = experiment: Induction of LDL uptake in human Huh-7 cells at 100 nM incubated for 24 hrs by DiI-LDL DMEM staining based fluorescence microplate reader assay; type: functional, cell-based
[12] = Tmax in C57 mouse at 5 mg/kg, po; type: ADME, organism-based; conditions: in vivo
HUVEC [13] = experiment: Antiproliferative activity human HUVEC cells assessed as inhibition of cell growth incubated for 24 hrs by MTT assay; type: toxicity, cell-based
Huh-7 [14] = experiment: Induction of autophagy in human Huh-7 cells assessed as reduction in PCSK9 level at 100 nM incubated for 24 hrs in presence of carfilzomib by Western blot analysis; type: functional, cell-based
Mus musculus [15] = experiment: Anti-atherosclerosis activity in mouse assessed as reduction in NF-kappab level in liver at 15 mg/kg, po measured for 3 weeks by Western blot analysis; type: functional, organism-based
Mus musculus [16] = experiment: Anti-atherosclerosis activity in mouse assessed as reduction in LDLR level in liver at 15 mg/kg, po measured for 3 weeks by Western blot analysis; type: functional, organism-based
Huh-7 [17] = experiment: Antiproliferative activity human Huh-7 cells assessed as inhibition of cell growth incubated for 24 hrs by MTT assay; type: functional, cell-based
MOVAS [18] = experiment: Downregulation of PCSK9 expression in mouse MOVAS cells transfected with PCSK9 siRNA incubated for 24 hrs Western blot analysis; type: functional, cell-based
[19] = AUC (0 to t) in C57 mouse at 5 mg/kg, ip; type: ADME, organism-based; conditions: in vivo
[20] = AUC (0 to t) in C57 mouse at 5 mg/kg, iv; type: ADME, organism-based; conditions: in vivo
Huh-7 [21] = experiment: Induction of autophagy in human Huh-7 cells assessed as reduction in PCSK9 level at 100 nM incubated for 24 hrs in presence of EBSS by Western blot analysis; type: functional, cell-based
HUVEC [22] = experiment: Anti-atherosclerosis activity in human HUVEC cells transfected with PCSK9 siRNA assessed as inhibition of LPS-induced ICAM-1 mRNA expression at 100 nM preincubated with compound for 24 hrs followed by LPS induction and measured after 24 hrs by qPCR analysis; type: functional, cell-based; conditions: time 48.0 hrs
THP-1 [23] = experiment: Anti-atherosclerosis activity in human THP-1 cells transfected with PCSK9 siRNA assessed as reduction in ox-LDL-induced amount of red lipid droplets at 100 nM preincubated with compound for 24 hrs followed by ox-LDL induction and measured after 24 hrs by oil red staining based analysis; type: functional, cell-based; conditions: time 48.0 hrs
Mus musculus [24] = experiment: Anti-atherosclerosis activity in mouse assessed as […] in LDL level in liver at 15 mg/kg, po measured for 3 weeks; type: functional, organism-based
[25] = Bioavailability in C57 mouse at 5 mg/kg, ip; type: ADME, organism-based; conditions: in vivo
THP-1 [26] = experiment: Antiproliferative activity human THP-1 cells assessed as inhibition of cell growth incubated for 24 hrs by MTT assay; type: functional, cell-based
Mus musculus [27] = experiment: Anti-atherosclerosis activity in mouse assessed as reduction in NLRP3 level in liver at 15 mg/kg, po measured for 3 weeks by Western blot analysis; type: functional, organism-based
HUVEC [28] = experiment: Anti-atherosclerosis activity in human HUVEC cells transfected with PCSK9 siRNA assessed as increase in Bcl-2 level at 100 nM incubated for 24 hrs by Western blot analysis; type: functional, cell-based
[29] = Cmax in C57 mouse at 5 mg/kg, ip; type: ADME, organism-based; conditions: in vivo
[30] = Oral bioavailability in C57 mouse at 5 mg/kg; type: ADME, organism-based; conditions: in vivo
HUVEC [31] = experiment: Anti-atherosclerosis activity in human HUVEC cells transfected with PCSK9 siRNA assessed as inhibition of ox-LDL-induced caspase 9 expression at 100 nM preincubated with compound for 24 hrs followed by ox-LDL induction and measured after 24 hrs by Western blot analysis; type: functional, cell-based; conditions: time 48.0 hrs
[32] = AUC (0 to infinity) in C57 mouse at 5 mg/kg, po; type: ADME, organism-based; conditions: in vivo
[33] = AUC (0 to infinity) in C57 mouse at 5 mg/kg, iv; type: ADME, organism-based; conditions: in vivo
HUVEC [34] = experiment: Anti-atherosclerosis activity in human HUVEC cells assessed as reduction in Bax level at 100 nM incubated for 24 hrs by Western blot analysis; type: functional, cell-based
HUVEC [35] = experiment: Anti-atherosclerosis activity in human HUVEC cells transfected with PCSK9 siRNA assessed as inhibition of ox-LDL-induced caspase 3 expression at 100 nM preincubated with compound for 24 hrs followed by ox-LDL induction and measured after 24 hrs by Western blot analysis; type: functional, cell-based; conditions: time 48.0 hrs
[36] = Toxicity in mouse assessed as heart damage at 5 to 15 mg/kg, po; type: organism-based; conditions: in vivo, dose 5-15 mg/kg
THP-1 [37] = experiment: Anti-atherosclerosis activity in human THP-1 cells transfected with PCSK9 siRNA assessed as reduction in NF-kappaB level at 100 nM preincubated with compound for 24 hrs followed by ox-LDL induction and measured after 24 hrs by Western blot analysis; type: functional, cell-based; conditions: time 48.0 hrs
Huh-7 [38] = experiment: Induction of autophagy in human Huh-7 cells assessed as reduction in PCSK9 level at 37 uM incubated for 24 hrs in presence of chloroquine by Western blot analysis; type: functional, cell-based
[39] = AUC (0 to infinity) in C57 mouse at 5 mg/kg, ip; type: ADME, organism-based; conditions: in vivo
HUVEC [40] = experiment: Anti-atherosclerosis activity in human HUVEC cells transfected with PCSK9 siRNA assessed as inhibition of LPS-induced VCAM-1 mRNA expression at 100 nM preincubated with compound for 24 hrs followed by LPS induction and measured after 24 hrs by qPCR analysis; type: functional, cell-based; conditions: time 48.0 hrs
MOVAS [41] = experiment: Antiproliferative activity mouse MOVAS cells assessed as inhibition of cell growth incubated for 24 hrs by MTT assay; type: functional, cell-based
Mus musculus [42] = experiment: Anti-atherosclerosis activity in mouse assessed as reduction in TC level in plasma at 15 mg/kg, po measured for 3 weeks; type: functional, organism-based
[43] = Tmax in C57 mouse at 5 mg/kg, ip; type: ADME, organism-based; conditions: in vivo

Which results are given for `COc1cc2c(cc1OCCOCCOCCOCCN1C(=O)/C(=C\c3cc(Br)c(O)c(Br)c3)c3cc(I)ccc31)C(C)(CC(=O)Nc1nccs1)NCC2` (stereo not given)?
Activity [1]: Non-toxic; Activity (THP-1 [2]): Active; Activity (Mus musculus [3]): Active; AUC(0-t) [4]: 0.0598 µg·h/mL; Activity (THP-1 [5]): Active; Activity (Mus musculus [6]): Active; Activity (HepG2): Active; Activity (Huh-7 [7]): Active; Cmax [8]: 0.0578 µg/mL; Activity [9]: Non-toxic; Activity (Huh-7 [10]): Active; Activity (Huh-7 [11]): Active; Tmax [12]: 15 min; Activity (HUVEC [13]): Non-toxic; Activity (Huh-7 [14]): Active; Activity (Mus musculus [15]): Active; Activity (Mus musculus [16]): Active; Activity (Huh-7 [17]): Active; Activity (MOVAS [18]): Active; AUC(0-t) [19]: 6.07 µg·h/mL; AUC(0-t) [20]: 9.5 µg·h/mL; Activity (Huh-7 [21]): Active; Activity (HUVEC [22]): Active; Activity (THP-1 [23]): Active; Activity (Mus musculus [24]): Active; bioavailability [25]: 63.9%; Activity (THP-1 [26]): Active; Activity (Mus musculus [27]): Active; Activity (HUVEC [28]): Active; Cmax [29]: 1.86 µg/mL; F ([30]; mouse, po, 5 mg/kg): 0.63%; Activity (HUVEC [31]): Active; AUC ([32]; mouse, po, 5 mg/kg): 0.177 µg·h/mL; AUC ([33]; mouse, iv, 5 mg/kg): 9.932 µg·h/mL; Activity (HUVEC [34]): Active; Activity (HUVEC [35]): Active; Activity [36]: Non-toxic; Activity (THP-1 [37]): Active; Activity (Huh-7 [38]): inactive; AUC(0-inf) [39]: 6.35 µg·h/mL; Activity (HUVEC [40]): Active; Activity (MOVAS [41]): Active; Activity (Mus musculus [42]): Active; Tmax [43]: 30 min

Which results are given for `COc1cc2c(cc1OCCCCN1C(=O)/C(=C\c3cc(Br)c(O)c(OC)c3)c3cc(Br)ccc31)C(C)(CC(=O)Nc1nccs1)NCC2` (stereo not given)?
AUC(0-t) [4]: 0.101 µg·h/mL; Cmax [8]: 0.055 µg/mL; Tmax [12]: 60 min; AUC(0-t) [19]: 0.951 µg·h/mL; AUC(0-t) [20]: 9.81 µg·h/mL; bioavailability [25]: 9.69%; Cmax [29]: 0.423 µg/mL; bioavailability ([30]; C57, mouse): 1.02%; AUC(0-inf) ([32]; C57, mouse): 0.119 µg·h/mL; AUC(0-inf) ([33]; C57, mouse): 10.6 µg·h/mL; AUC(0-inf) [39]: 0.987 µg·h/mL; Tmax [43]: 60 min

With `O=C1Nc2ccc(I)cc2/C1=C/c1cc(Br)c(O)c(Br)c1` as the molecule, how does the Activity (Huh-7 [7]) read?
The Activity was “inactive”.

And the Activity (Huh-7 [10])?
Its Activity is “inactive”.

Which results are given for `COc1cc2c(cc1O)C(C)(CC(=O)Nc1nccs1)NCC2` (stereo not given)?
Activity (Huh-7 [7]): inactive; Activity (Huh-7 [10]): inactive

— ChEMBL document CHEMBL6134871, “PCSK9 Targeted Autophagosome-Tethering Compounds: Design, Synthesis, and Antiatherosclerosis Evaluation” (J Med Chem, 2025)
